Test [1] deals with lipid vesicles 60% POPC:15% cholesterol:15% POPE:10% POPS. The experiment in a line: Fluorescence anisotropy titration of NBD-labeled MARCKS peptides with lipid vesicles. Type of test: binding. How it is done:
In another example, because fluorescence enhancement assays could not distinguish the contributions between different degrees of membrane penetration and binding affinity, fluorescence anisotropy assay was performed to specifically measure the binding affinity of the MARCKS derived peptides. The NBD-labeled peptides (1 μM) were titrated by synthetic liposomes of various sizes (30, 100, and 400 nm). Fluorescence anisotropy was recorded using a Fluorolog-3 fluorometer. The mixture was allowed to equilibrate for 2 minutes prior to the next titration. The excitation wavelength was set to λex=480 nm whereas the emission filter was set to λem=545 nm. The voltage was set to 250 V throughout the experiment. Blank PBS (pH=7.40) was titrated to NBD-labeled peptides as a negative control, where negligible anisotropy change was observed. The following equation was used to determine the dissociation constants as previously reported: Fb=Kp [L]/(1+KP[L]), where Fb expresses the fraction of peptide bound to lipids, Kp expresses the molar partition coefficient and [L] expresses the lipid concentration.
Lipid vesicles were titrated to NBD-labeled MARCKS-ED, MARCKSmut1, or MARCKSmut2 peptides. Since the peptide partitions between the hydrophobic lipid bilayer and the aqueous solvent, the molar partition coefficient is often reported. By definition, the apparent dissociation constant (Kd), described as the lipid concentration where 50% of the peptide is bound, is the reciprocal of the molar partition coefficient (Kp). Fluorescence anisotropy assay results indicated efficient curvature sensing by MARCKS-ED. FIG. 4C represents an exemplary fluorescence anisotropy titration of MARCKS-ED with various lipid vesicles. FIG. 4D provides data of fluoresence anisotropy titration of various MARCKS derived peptides. Lipid vesicles used in the experiments represented by FIGS. 4C-4D contained 60% POPC:15% cholesterol: 15% POPE: 10% POPS. […] As a comparison, C2AB illustrated a 1.9 fold increase in binding to smaller vesicles (105 nm) relative to the larger ones (252 nm). […] In addition, electrostatic interactions of MARCKSmut2 were also compromised. […] Such defects would permit the Phe residue to insert and stabilize the highly curved membranes.
(Polarisation of emitted light reports the rotation of a fluorescent probe.)

A further test concerns microvesicles in plasma. Description: Nanoparticle tracking analysis of microvesicles in plasma from stressed rats treated with MARCKS peptides. Type of test: binding, rat. To be noted: Alexa Fluor 546 labeled peptides 55 nM. How it is done: These isolated microvesicles were measured by nanoparticle tracking analysis (NTA) to confirm their average size (ø=56 nm). Tracking analyses were performed using the NanoSight LM10-HS instrument (Amesbury, UK) equipped with a 532 nm laser and observed at scatter and fluorescence modes (filter=550 nm). The instrument was calibrated using commercially available 50 nm polystyrene beads. […] Alexa Fluor 546™-labeled mouse anti-rat CD63 and unconjugated Alexa Fluor 546™ were used as positive and negative controls, respectively. The profiles of MARCKS-ED-Alexa Fluor 546™ and Alexa Fluor 546™ in the absence of microvesicles were also investigated to confirm that these show negligible scatter and fluorescence background signals under identical NTA conditions.
FIG. 5A represents fluorescence enhancement assay with MARCKS-ED incubated with the isolated microvesicles. Peptide MARCKS-ED ([…]) not treated with microvesicles was used as a negative control. Annexin-V (a positive control) and MARCKS-ED were incubated with the isolated rat microvesicles. Fluorescence was normalized to the negative control. […] The diameter size and particle count of the isolated microvesicles detected by MARCKS-ED was further quantified. Nanoparticle tracking analysis (NTA) uses a laser for scatter and fluorescence modes to track small particles by Brownian motion, providing a robust method for detecting nano-sized microvesicles. Under the fluorescence mode with the emission filter set for the Alexa Fluor 546™, the particles that bound to MARCKS-ED, MARCKSmut1, and MARCKSmut2peptides were observed.
FIG. 5B illustrates the results of NTA of microvesicles treated with MARCKS derived peptides. […] The untreated plasma samples were detected using the scatter mode and treated samples were monitored by tracking the fluorescence of Alexa Fluor 546™ conjugated to the MARCKS-ED MARCKSmut1 and MARCKSmut2 peptides. […] Furthermore, blank samples were performed to rule out possible artifacts of background fluorescence from the peptides, the vesicles and the unconjugated dye.

Test [2] relates to synthetic vesicles of sizes 100 nm and 400 nm. Description: Cosedimentation assay of MARCKS-ED with synthetic vesicles. The format is binding. From the text:
In another exemplary method, lipid vesicles were employed to the curvature-sensing behavior of the MARCKS derived peptides with various sizes and lipid components. The membrane curvature is defined as the reciprocal of the diameter of a particular particle, e.g., smaller-sized vesicles present highly curved membrane bilayers. A series of lipid models were made to represent various lipid components that closely resemble the lipid composition of biological membranes. […] Dynamic light scattering (DLS) and negative-stain transmission electron microscopy (TEM) were performed to confirm the different vesicle sizes following the pressure-controlled extrusion process through different membrane diameter pores. Commercial polystyrene beads were used as the calibration standard for the vesicle size validation experiments. Furthermore, a time-course experiment was carried out to confirm the stability of the vesicles up to 16 hours. Three different membrane diameters were extruded for the following biophysical characterizations: 30 nm, 100 nm, 400 nm, reflecting different membrane curvatures.
In another exemplary method, a cosedimentation assay was performed to test the size differentiation behavior of MARCKS-ED. Two vesicle pore sizes, 100 and 400 nm, were used in this experiment because vesicles smaller than 100 nm were difficult to pellet even at high centrifugation speed. MARCKS-ED (10 μM) was incubated with 600 μM synthetic vesicles of sizes 100 nm and 400 nm. The positive control was the intact C2A-C2B cytoplasmic domains (C2AB) of rat Synaptotamin-1 (a.a. 96-421). C2AB (1.5 μM) was treated with CaCl2 (1 mM) and incubated with 300 μM synthetic vesicles of sizes 100 nm and 400 nm. C2AB treated with vesicles was incubated at room temperature for 30 minutes, followed by centrifugation of 65,000 rpm for 45 minutes at 20° C. MARCKS-ED treated with vesicles was incubated at room temperature for 2 hours, followed by 75,000 rpm for 45 minutes at 20° C. […]

In the case of KKKKKRFSFKKSFKLSGFSFKKNKK [MARCKS-ED], the Kd in test [1] (30 nm pore size lipid vesicles containing 10% PS) stood at 24 ± 3 µM; in test [1] (100 nm pore size lipid vesicles containing 10% PS), 42 ± 13 µM; in test [1] (400 nm pore size lipid vesicles containing 10% PS), 86 ± 20 µM. For the same sequence, the “binding to microvesicles in whole plasma (NTA fluorescence mode)” value in the test on microvesicles in plasma is recorded as “selectively bind to small-sized microvesicles in whole plasma”. In addition, the “pull-down by lipid vesicles without PS” value in test [2] is “less MARCKS-ED was pulled down”. Moreover, the “pull-down by 100 nm vs 400 nm PS-containing vesicles” value in test [2] (gel electrophoresis of supernatant and pellet) was “binds more tightly to highly curved vesicles containing PS”.

One may read the Kd as the constant that tells how readily two partners part at equilibrium.

The values above are taken from patent US20150093333A1, “COMPOSITIONS, METHODS AND USES FOR PEPTIDES IN DIAGNOSIS, PROGRESSION AND TREATMENT OF CANCERS” (THE REGENTS OF THE UNIVERSITY OF COLORADO, body corporate, priority 2003, published 2015).
